Laboratory results taken from ChEMBL document CHEMBL5154875, “Discovery of Potent Orally Bioavailable WD Repeat Domain 5 (WDR5) Inhibitors Using a Pharmacophore-Based Optimization” (J Med Chem, 2022).
In brackets after ≈: the same amount, converted by molar mass.

Legend:
[1] = molecular target: T1, WD repeat-containing protein 5 (Homo sapiens, UniProt P61964); test: Inhibition of 5- FAM labeled tracer binding to N-terminal His6-SUMO-tagged WDR5 (24 to 334 residues) (unknown origin) expressed in Escherichia coli Rosetta 2 (DE3) cells incubated for 3 hrs by fluorescence polarization based competitive binding assay
[2] = Kinetic aqueous solubility of compound at pH 7.4; type: physicochemical; settings: buffer
[3] = molecular target: T1, WD repeat-containing protein 5; test: Inhibition of N-terminal 6xHis-SUMO-tagged human WDR5 (22 to 334 residues) expressed in Escherichia coli BL21-Gold (DE3) cells assessed as inhibition constant incubated for 1 hr by TR-FRET assay
[4] = Effective permeability of compound in PBS at pH 7.4 at 100 uM incubated for 5 hrs by PAMPA assay; type: ADME; settings: pH 7.4, 5 h
[5] = Acute toxicity in CD-1 mouse assessed as reduced locomotive activity at 3 mg/kg, iv measured 0.083 to 24 hrs post-treatment by LC-MS/MS analysis; type: organism-based; settings: in vivo, time 0.083-24 hrs
K562 = test: Anti-proliferative activity against human K562 cells assessed as inhibition of cell proliferation incubated for 5 days by Cell Titre Glo luminescent assay; type: functional; settings: time 5 day
MV4-11 [6] = test: Anti-proliferative activity against human MV4-11 cells assessed as inhibition of cell proliferation incubated for 5 days by Cell Titre Glo luminescent assay; type: functional; settings: time 5 day
[7] = Clearance in CD-1 mouse at 3 mg/kg, iv measured 0.083 to 24 hrs post-treatment by LC-MS/MS analysis; settings: in vivo, BLD = below limit of detection
[8] = AUC (0 to infinity) in CD-1 mouse at 3 mg/kg, iv measured 0.083 to 24 hrs post-treatment by LC-MS/MS analysis; type: ADME, organism-based; set-up: time upper 24 hrs, time lower 0.083 hrs, dose 3 mg/kg, route iv; settings: in vivo; for AUC: mouse; for AUC(0-inf): CD-1, mouse
[9] = Acute toxicity in CD-1 mouse assessed as lowered body temperature at 3 mg/kg, iv measured 0.083 to 24 hrs post-treatment by LC-MS/MS analysis; type: organism-based; settings: in vivo, time 0.083-24 hrs
MOLM-13 = test: Anti-proliferative activity against human MOLM-13 cells assessed as inhibition of cell proliferation incubated for 5 days by Cell Titre Glo luminescent assay; type: functional; settings: time 5 day
[10] = Volume of distribution at steady state in CD-1 mouse at 3 mg/kg, iv measured 0.083 to 24 hrs post-treatment by LC-MS/MS analysis; type: ADME, organism-based; settings: in vivo, time 0.083-24 hrs; for Vdss: mouse, iv, 3 mg/kg; for Vd: CD-1, mouse, read-out: Vdss
[11] = Acute toxicity in CD-1 mouse assessed as lethality at 3 mg/kg, iv measured 0.083 to 24 hrs post-treatment by LC-MS/MS analysis; type: organism-based; settings: in vivo, time 0.083-24 hrs
[12] = Half life in CD-1 mouse at 10 mg/kg, po measured 0.083 to 24 hrs post-treatment by LC-MS/MS analysis; type: ADME, organism-based; settings: in vivo, time 0.083-24 hrs; for half-life: CD-1, mouse; for t1/2: mouse, po, 10 mg/kg
[13] = Kinetic solubility of compound in PBS at pH 7.4 at 100 uM incubated for 1 hr by UV-visible spectroscopy analysis; type: physicochemical; settings: for solubility kinetic at 1 h, 100 µM: PBS, pH 7.4, read-out: Kinetic_solubility; for Kinetic_solubility: buffer, pH 7.4, 1 h, 100 µM
[14] = Cmax in CD-1 mouse at 10 mg/kg, po measured 0.083 to 24 hrs post-treatment by LC-MS/MS analysis; type: ADME, organism-based; set-up: time lower 0.083 hrs, dose 10 mg/kg, time upper 24 hrs, route po; settings: in vivo
[15] = Clearance in CD-1 mouse at 3 mg/kg, iv measured 0.083 to 24 hrs post-treatment by LC-MS/MS analysis; type: ADME, organism-based; settings: in vivo, time 0.083-24 hrs
[16] = AUC (0 to infinity) in CD-1 mouse at 10 mg/kg, po measured 0.083 to 24 hrs post-treatment by LC-MS/MS analysis; type: ADME, organism-based; set-up: dose 10 mg/kg, time upper 24 hrs, time lower 0.083 hrs, route po; settings: in vivo; for AUC(0-inf): CD-1, mouse; for AUC: mouse
[17] = Oral bioavailability in CD-1 mouse at 10 mg/kg measured 0.083 to 24 hrs post-treatment by LC-MS/MS analysis; type: ADME, organism-based; settings: in vivo, time 0.083-24 hrs; for bioavailability: CD-1, mouse; for F: mouse, po, 10 mg/kg
[18] = molecular target: T1, WD repeat-containing protein 5; test: Competitive binding affinity to N-terminal 6xHis-SUMO-tagged human WDR5 (22 to 334 residues) expressed in Escherichia coli BL21-Gold (DE3) cells assessed as inhibition constant using 10-mer-Thr-FAM peptide as substrate incubated for 1 hr by Lantha Screen based TR-FRET assay
[19] = Metabolic stability of compound in rat liver microsome assessed as half life at 1 uM measured upto 45 mins by LCMS analysis; type: ADME, microsomes; settings: for t1/2: microsomes, 0.75 h, 1 µM
[20] = Metabolic stability of compound in rat liver microsome assessed as intrinsic clearance at 1 uM measured upto 45 mins by LCMS analysis; type: ADME, microsomes; settings: for CLH: microsomes, 0.75 h, 1 µM
MV4-11 [21] = test: Anti-proliferative activity against human MV4-11 cells harboring MLL fusion protein assessed as inhibition of cell viability treated for 72 hrs by CCK-8 assay; type: functional, cell-based; settings: MV4-11, 72 h
[22] = molecular target: Histone-lysine N-methyltransferase 2A/WDR5 (Homo sapiens, UniProt P61964); test: Inhibition of MLL1-WDR5 (unknown origin) interaction using 10mer-Thr-FAM as substrate by fluorescence polarization based competitive binding assay; type: protein assay

CC[C@@H]1NC(=O)[C@H](CCCNC(=N)NC)NC(=O)[C@](C)(NC(=O)C(C)C)CCNC(=O)[C@@H](c2ccccc2)NC1=O
Ki [1]: < 1 nM

COc1cc(CN2CCc3c(cc(Cn4ccn(C)c4=N)cc3-c3ccc(F)cc3C)C2=O)cc(OC)c1
Kinetic_solubility [2]: 29 µM | Ki [3]: < 0.02 nM | permeability [4]: < 0.6 10^-6 cm/s | Activity [5]: Toxic | GI50 (K562; Homo sapiens, K562, 120 h): 8000 nM | GI50 (MV4-11 [6]; Homo sapiens, MV4-11, 120 h): 38 nM | CL [7]: Bld | AUC [8]: 642 ng·h/mL | Activity [9]: Toxic | GI50 (MOLM-13; Homo sapiens, MOLM-13, 120 h): 78 nM | Vdss [10]: 16 L/kg | Activity [11]: Toxic

CCn1cc(-c2cc(Cn3ccnc3)cc3c2CCN([C@@H](c2cc(OC)ccn2)C2CC2)C3=O)c(C(F)(F)F)n1
half-life [12]: 1.3 h | solubility kinetic at 1 h, 100 µM [13]: 60 µM (≈ 33 µg/mL) | Cmax ([14]; CD-1, mouse, read-out: Cmax): 2080 ng/mL | GI50 (K562; Homo sapiens, K562, 120 h): 3700 nM | clearance [15]: 26 mL/min/kg | GI50 (MV4-11 [6]; Homo sapiens, MV4-11, 120 h): 13 nM | AUC(0-inf) [16]: 3980 ng·h/mL | AUC(0-inf) [8]: 1950 ng·h/mL | GI50 (MOLM-13; Homo sapiens, MOLM-13, 120 h): 27 nM | bioavailability [17]: 61% | Vd [10]: 1.6 L/kg

CCn1cc(-c2cc(Cn3ccnc3)cc3c2CCN([C@H](c2cc(OC)ccn2)C2CC2)C3=O)c(C(F)(F)F)n1
Ki [18]: < 0.02 nM | t1/2 [12]: 1.2 h | GI50 (K562; Homo sapiens, K562, 120 h): 1500 nM | GI50 (MV4-11 [6]; Homo sapiens, MV4-11, 120 h): 19 nM | GI50 (MOLM-13; Homo sapiens, MOLM-13, 120 h): 37 nM

COc1ccnc(CN2CCc3c(cc(Cn4ccnc4C)cc3-c3cn(C)nc3C(F)(F)F)C2=O)c1
Ki [18]: < 0.02 nM | GI50 (K562; Homo sapiens, K562, 120 h): 9500 nM | GI50 (MV4-11 [6]; Homo sapiens, MV4-11, 120 h): 24 nM | t1/2 [19]: 0.0533 h | GI50 (MOLM-13; Homo sapiens, MOLM-13, 120 h): 39 nM | CLH [20]: 220 µL/min/mg

CCn1cc(-c2cc(Cn3ccnc3)cc3c2CCN([C@H](C)c2cc(OC)ccn2)C3=O)c(C(F)(F)F)n1
Ki [18]: 0.028 nM | GI50 (K562; Homo sapiens, K562, 120 h): 12000 nM | GI50 (MV4-11 [6]; Homo sapiens, MV4-11, 120 h): 39 nM | GI50 (MOLM-13; Homo sapiens, MOLM-13, 120 h): 100 nM

CCn1cc(-c2cc(Cn3ccnc3C)cc3c2CCN([C@H](C)c2cc(OC)ccn2)C3=O)c(C(F)(F)F)n1
Ki [18]: 0.029 nM | GI50 (K562; Homo sapiens, K562, 120 h): 7800 nM | GI50 (MV4-11 [6]; Homo sapiens, MV4-11, 120 h): 39 nM | GI50 (MOLM-13; Homo sapiens, MOLM-13, 120 h): 110 nM

CN1CCN(c2cc(F)c(-c3ccc(NC(=O)N(C)C)cc3)cc2Nc2ncnc(Cl)c2N)CC1
IC50 (MV4-11 [21]): 12600 nM | IC50 [22]: 29 nM

CCn1cc(-c2cc(Cn3ccnc3C)cc3c2CCN([C@H](c2cc(C)ccn2)C2CC2)C3=O)c(C(F)(F)F)n1
Ki [18]: < 0.02 nM | t1/2 [12]: 1.2 h | Kinetic_solubility [13]: 66 µM | Cmax ([14]; mouse): 1083 ng/mL | GI50 (K562; Homo sapiens, K562, 120 h): 2500 nM | GI50 (MV4-11 [6]; Homo sapiens, MV4-11, 120 h): 17 nM | AUC [16]: 1000 ng·h/mL | AUC [8]: 2075 ng·h/mL | GI50 (MOLM-13; Homo sapiens, MOLM-13, 120 h): 43 nM | F [17]: 15% | Vdss [10]: 1.1 L/kg

CCn1cc(-c2cc(Cn3ccnc3C)cc3c2CCN([C@@H](c2cc(OC)ccn2)C2CC2)C3=O)c(C(F)(F)F)n1
half-life [12]: 1.4 h | solubility kinetic at 1 h, 100 µM [13]: 65 µM (≈ 36.7 µg/mL) | Cmax ([14]; CD-1, mouse, read-out: Cmax): 652 ng/mL | GI50 (K562; Homo sapiens, K562, 120 h): 2600 nM | clearance [15]: 41 mL/min/kg | GI50 (MV4-11 [6]; Homo sapiens, MV4-11, 120 h): 15 nM | AUC(0-inf) [16]: 508 ng·h/mL | AUC(0-inf) [8]: 1240 ng·h/mL | GI50 (MOLM-13; Homo sapiens, MOLM-13, 120 h): 36 nM | bioavailability [17]: 12% | Vd [10]: 1.6 L/kg

CCn1cc(-c2cc(Cn3ccnc3C)cc3c2CCN([C@@H](C)c2cc(OC)ccn2)C3=O)c(C(F)(F)F)n1 (stereo in doubt; 34)
Ki [18]: < 0.02 nM | t1/2 [12]: 1.2 h | Kinetic_solubility [13]: 80 µM | Cmax ([14]; mouse): 279 ng/mL | GI50 (K562; Homo sapiens, K562, 120 h): 2200 nM | GI50 (MV4-11 [6]; Homo sapiens, MV4-11, 120 h): 11 nM | AUC [16]: 397 ng·h/mL | AUC [8]: 429 ng·h/mL | t1/2 [19]: 0.2 h | GI50 (MOLM-13; Homo sapiens, MOLM-13, 120 h): 26 nM | F [17]: 28% | CLH [20]: 60 µL/min/mg | Vdss [10]: 3.8 L/kg

CCn1cc(-c2cc(Cn3ccnc3C)cc3c2CCN([C@@H](C)c2cc(OC)ccn2)C3=O)c(C(F)(F)F)n1 (stereo in doubt; 38)
solubility kinetic at 1 h, 100 µM [13]: 86 µM (≈ 46.3 µg/mL) | Cmax ([14]; CD-1, mouse, read-out: Cmax): 2010 ng/mL | GI50 (K562; 120 h): 1900 nM | clearance [15]: 76 mL/min/kg | GI50 (MV4-11 [6]; 120 h): 9.7 nM | AUC(0-inf) [16]: 1710 ng·h/mL | AUC(0-inf) [8]: 707 ng·h/mL | half-life at 1 µM ([19]; liver microsomes): 0.367 h | GI50 (MOLM-13; 120 h): 19 nM | bioavailability [17]: 73% | microsomal CLint at 1 µM ([20]; liver microsomes, read-out: CLH): 31 µL/min/mg | Vd [10]: 2.3 L/kg
